“Also recorded” adds a separate entry of the source. Marks after values point to notes of the source that are not given here.
Columns and labels:
Type in all cases: cell-based, human
YAP [1] = assay: YAP immunofluorescence, nuclear/cytoplasmic localization in HTM cells after Lat-B; settings: Lat-B vs DMSO, one hour after treatment
Procedure: Fixation and Immunofluoresence. One hour after treatment with Lat-B or DMSO, the cells were rinsed twice with warm DPBS and fixed in warm DPBS with 4% paraformaldehyde (Sigma-Aldrich, St. Louis, Mo.) for 20 min. They were rinsed twice more and permeabilized in DPBS with 0.5% Triton-X100 (Sigma-Aldrich, St. Louis, Mo.). They were rinsed and stored in DPBS until staining Rabbit anti-YAP (H-125, Santa Cruz Biotechnology, Santa Cruz, Calif.) was diluted in PBS containing 0.2% A-type cold fish gelatin (Sigma-Aldrich, St. Louis, Mo.) as a blocking agent. After primary staining, cells were rinsed twice in PBS. Dylight 594-conjugated goat anti-rabbit IgG (Thermo Scientific Pierce, Rockford, Ill.) was similarly diluted. After secondary staining, the cells were again rinsed, counterstained with DAPI (Life Technologies, Carlsbad, Calif.), rinsed a final time, and stored in PBS for imaging. Cells were imaged on an Axiovert 200 M (Carl Zeiss AG, Oberkochen, Germany) inverted microscope with a 20× objective. To mitigate background signal, images were filtered with a 77.5 μm rolling ball background and local median filtering (ImageJ, NIH, Bethesda, Md.).

YAP mRNA = assay: Relative quantitative PCR for YAP mRNA in primary HTM cells on hydrogels or TCP after Lat-B; settings: for Relative quantification of YAP mRNA (mean ± SEM): 2 μM Lat-B, 1 h after treatment, TCP DMSO = 1.0; for YAP mRNA expression versus DMSO: HTM 424 donor (FIG. 8)
Procedure: (§1) Hydrogel Fabrication. Polyacrylamide hydrogels mimicking the stiffness of the normal (5 kPa) and glaucomatous (75 kPa) HTM were prepared utilizing previously described procedures (McKee et al., 2011; Wood et al., 2011b). Briefly, hydrogels were fabricated and then sterilized with ultraviolet light and rinsed every 24 hours for at least 72 hours in Dulbecco's phosphate buffered solution (DPBS, Hyclone, Logan, Utah) to fully hydrate the hydrogels and to ensure removal of monomeric acrylamide since free acrylamide has been previously shown to disrupt cytoskeletal structure (Arocena, 2006). Following hydration, the hydrogels (10 mm) were adhered to TCP, stored in HTM cell medium, DME/F-12 medium containing 2.5 mM L-glutamine supplemented with 1% penicillin-streptomycin with amphotericin b (Lonza, Walkerville, Md.) and 10% fetal bovine serum (Atlanta Biologicals, Lawrence, Ga.), for 24 hrs and coated with a proprietary fibronectin/collagen (FNC) mixture (AthenaES, Baltimore, Md.) for 20 minutes. The elastic modulus of the hydrogels used were previously validated with atomic force microscopy at 4±2 kPa and 71±5 kPa for the 5 and 75 kPa gels respectively (McKee et al., 2011; Radmacher et al., 1992).
(§2) HTM Cell Isolation and Culture. Primary HTM cells were isolated from corneoscleral rims considered unsuitable for transplant from donors with no prior history of ophthalmic disease as previously described (McKee et al., 2011; Rhee et al., 2003; Wood et al., 2011b). Isolated cells were cultured in HTM cell medium and all studies were conducted using cells prior to the eighth passage. HTM cells were plated at a density of 1.5 ×105 on FNC-coated TCP and 75 kPa hydrogels and 2.5×105 on FNC-coated 5 kPa hydrogels for 24 h prior to Lat-B treatment. The 5 kPa hydrogels were plated a higher density than the other substrates because HTM cells proliferate more slowly on the 5 kPa hydrogels (Wood et al., 2011a), and to ensure that there was enough mRNA present to perform PCR.
(§3) Latrunculin-B Treatment. Lyophilized Lat-B (Cal Biochem, La Jolla, Calif.) was re-suspended to a final concentration of 2.5 mM in dimethyl sulfoxide (DMSO) (Fisher, Pittsburgh, Pa.). Fresh solutions of 2.0 μM Lat-B were prepared in serum free DPBS for all experiments. Control samples were treated with an equivalent concentration of DMSO in serum free DPBS.
(§4) RNA Extraction and Quantitative Real-Time PCR. One hour after treatment with Lat-B or DMSO, RNA was extracted using the Qiagen RNeasy kit following the manufacturer's protocol (Qiagen, Valencia, Calif.). […] The cycle threshold (Ct) ranges were 11-22 for 18S, 23-27 for YAP, 23-34 for WWTR1, 27-32 for 14-3-3σ, 21-30 for CTGF and 17-23 for PAI-1. The 18S ribosomal RNA served as a reference. […] In order to control for slight variations in the amount of RNA loaded into the PCR reactions, the difference in cycle threshold (ΔCt) between the gene of interest (e.g. YAP) and the average cycle threshold (Ct) of the house keeping gene, 18S (ran in triplicate) were calculated. By calculating the difference in ΔCt between an experimental condition and the control condition (TCP DMSO), the experimental data was normalized to the control data. Ratios with respect to this control were calculated for all other values. The protein TAZ is encoded by the WWTR1 gene, for ease of reading, the mRNA obtained from the WWTR1 gene is designated as TAZ mRNA.

PAI-1 mRNA = assay: qPCR for PAI-1 mRNA in primary HTM cells after Lat-B; settings: 75 kPa hydrogels, all 3 donors
Procedure: (§5) Hydrogel Fabrication. Polyacrylamide hydrogels mimicking the stiffness of the normal (5 kPa) and glaucomatous (75 kPa) HTM were prepared utilizing previously described procedures (McKee et al., 2011; Wood et al., 2011b). Briefly, hydrogels were fabricated and then sterilized with ultraviolet light and rinsed every 24 hours for at least 72 hours in Dulbecco's phosphate buffered solution (DPBS, Hyclone, Logan, Utah) to fully hydrate the hydrogels and to ensure removal of monomeric acrylamide since free acrylamide has been previously shown to disrupt cytoskeletal structure (Arocena, 2006). […]
(§6) RNA Extraction and Quantitative Real-Time PCR. […] In order to control for slight variations in the amount of RNA loaded into the PCR reactions, the difference in cycle threshold (ΔCt) between the gene of interest (e.g. YAP) and the average cycle threshold (Ct) of the house keeping gene, 18S (ran in triplicate) were calculated. […] Ratios with respect to this control were calculated for all other values. The protein TAZ is encoded by the WWTR1 gene, for ease of reading, the mRNA obtained from the WWTR1 gene is designated as TAZ mRNA.

myocilin (MYOC) mRNA = assay: Myocilin mRNA in HTM cells on hydrogels or TCP after Lat B
Procedure: (§7) Materials and methods similar to those in Examples 1 and 2 were used. Alternatively or additionally, at least some of the following methods were or can be used for the experiments described hereafter.
(§8) Cell Culture. Primary HTM cells is obtained from normal human donor corneoscleral rims deemed not suitable for transplant (50). HTM cells are cultured in DMEM/F12 medium with 10% fetal bovine serum. Only cells before the 7th passage are used to conduct these studies. Only normal HTM cells are used because growth of cells from glaucomatous HTM is generally not robust enough to guarantee a successful completion of the experiment (51-54). Cells are plated onto hydrogels with Young's moduli of 5 kPa (homeomimetic) or 75 kPa (pathomimetic) that are fabricated to fit in a single well of a standard 6 well culture plate with 300,000 cells per surface. The cells are allowed to attach to the surfaces for 24 hours prior to subsequent experimentation.
(§9) Fabrication of Hydrogel Substrates. Hydrogels are composed of 5.8% acrylamide/0.2% bisacrylamide (5 kPa) or 17.4% acrylamide/0.6% bisacrylamide (75 kPa). Each of the gels contains 4% (v/v) acrylamidoisopropyl trimethyl ammonium chloride. After polymerization, the gels are stored in phosphate buffered saline for two days to allow maximal swelling. One day prior to seeding of the cells on the hydrogels, culture medium with 10% fetal bovine serum is added to the gel to allow the hydrogel to be coated with the various proteins and components present in the serum. The Young's moduli of the hydrogels have been validated by atomic force microscopy (14, 55).
(§10) Real-Time PCR. Real-time PCR is conducted with 70 ng of mRNA using a StepOne PCR machine. Reverse transcription is done for 30 minutes at 50° C. and subsequent PCR is done for 40 cycles of 15 seconds at 95° C. and 1 minute at 60° C.

SPARC mRNA = SPARC mRNA in HTM cells on hydrogels or TCP after Lat B
Procedure: as §7, §8, §9, §10

CTGF mRNA = assay: qPCR for CTGF mRNA in primary HTM cells after Lat-B; settings: stiff (75 kPa) hydrogels, 3 donors, p=0.02
Procedure: as §5, §6

14-3-3σ mRNA = assay: Relative quantitative PCR for 14-3-3σ mRNA in primary HTM cells on hydrogels or TCP after Lat-B; settings: for Relative quantification of 14-3-3σ mRNA (mean ± SEM): 2 μM Lat-B, 1 h after treatment, TCP DMSO = 1.0; for 14-3-3σ mRNA expression versus DMSO: HTM 424 donor (FIG. 11); for level of 14-3-3σ mRNA: Example 3 (FIG. 16)
Procedure: as §1, §2, §3, §4

TAZ mRNA = assay: qPCR for TAZ (WWTR1) mRNA in primary HTM cells after Lat-B
Procedure: as §5, §6

YAP [2] = assay: Expression of YAP in HTM cells after 17-allylamino-17-demethoxygelanamycin; settings: 25 nM
HSP90 = assay: Amount of HSP90 in HTM cells after 17-allylamino-17-demethoxygelanamycin; settings: 25 nM
[3] = HTM cells after Lat B treatment (Example 3)
[4] = homeo- and pathomimetic hydrogels, Lat B 30 minutes, seven hours recovery, listed as Lat B
[5] = homeo- and pathomimetic hydrogels, Lat B 30 minutes, seven hours recovery, listed as Latrunculin B
[6] = tissue culture plastic (GPa), after Lat B treatment

C/C1=C/C(=O)O[C@@H]2C[C@@H](CC[C@H](C)/C=C\CC1)O[C@@](O)([C@@H]1CSC(=O)N1)C2 [Lat-B, Latrunculin-B]
YAP in the nucleus (nuclear localization) (YAP [1]; 5 kPa hydrogel): dramatic reduction
YAP nuclear localization (YAP [1]; TCP): some nuclear localization remained
YAP mRNA versus DMSO (YAP mRNA; 75 kPa hydrogels, one hour after treatment, all three donors, p<0.05): significantly less
Relative quantification of YAP mRNA (mean ± SEM) (YAP mRNA; HTM 211 cells, 5 kPa hydrogel): 0.33 ± 0.01^a ^
Relative quantification of YAP mRNA (mean ± SEM) (YAP mRNA; HTM 211 cells, 75 kPa hydrogel): 0.06 ± 0.01^b, †
Relative quantification of YAP mRNA (mean ± SEM) (YAP mRNA; HTM 211 cells, TCP (>1 GPa)): 0.48 ± 0.0^c, †
Relative quantification of YAP mRNA (mean ± SEM) (YAP mRNA; HTM 424 cells, 5 kPa hydrogel): 0.79 ± 0.06^a, †
Relative quantification of YAP mRNA (mean ± SEM) (YAP mRNA; HTM 424 cells, 75 kPa hydrogel): 0.59 ± 0.05^a, †
Relative quantification of YAP mRNA (mean ± SEM) (YAP mRNA; HTM 424 cells, TCP (>1 GPa)): 1.3 ± 0.39^a
Relative quantification of YAP mRNA (mean ± SEM) (YAP mRNA; HTM 431 cells, 5 kPa hydrogel): 1.6 ± 0.01^a, †
Relative quantification of YAP mRNA (mean ± SEM) (YAP mRNA; HTM 431 cells, 75 kPa hydrogel): 0.83 ± 0.05^b, †
Relative quantification of YAP mRNA (mean ± SEM) (YAP mRNA; HTM 431 cells, TCP (>1 GPa)): 0.55 ± 0.02^c, †
decrease of YAP mRNA levels (YAP mRNA; [3]): 1.8 fold
YAP mRNA expression versus DMSO (YAP mRNA; cells grown on TCP): did not have significantly different
YAP mRNA expression versus DMSO (YAP mRNA; cells grown on hydrogels): significantly less
PAI-1 mRNA expression versus DMSO (PAI-1 mRNA): less and decreased
MYOC mRNA levels (myocilin (MYOC) mRNA; [4]): significantly reduced
MYOC mRNA levels (myocilin (MYOC) mRNA; [5]): significantly decreased
MYOC mRNA levels (myocilin (MYOC) mRNA; [6]): no change
SPARC mRNA levels (SPARC mRNA; [4]): significantly reduced
SPARC mRNA levels (SPARC mRNA; [5]): significantly decreased
SPARC mRNA levels (SPARC mRNA; [6]): no change
CTGF mRNA expression versus DMSO (CTGF mRNA): significantly decreased; also recorded: significantly less
Relative quantification of 14-3-3σ mRNA (mean ± SEM) (14-3-3σ mRNA; HTM 211 cells, 5 kPa hydrogel): 15 ± 0.82^a
Relative quantification of 14-3-3σ mRNA (mean ± SEM) (14-3-3σ mRNA; HTM 211 cells, 75 kPa hydrogel): 29 ± 1.8^b, †
Relative quantification of 14-3-3σ mRNA (mean ± SEM) (14-3-3σ mRNA; HTM 211 cells, TCP (>1 GPa)): 1.2 ± 0.25^c
Relative quantification of 14-3-3σ mRNA (mean ± SEM) (14-3-3σ mRNA; HTM 424 cells, 5 kPa hydrogel): 4.8 ± 0.12^a, †
Relative quantification of 14-3-3σ mRNA (mean ± SEM) (14-3-3σ mRNA; HTM 424 cells, 75 kPa hydrogel): 5.6 ± 0.51^a, †
Relative quantification of 14-3-3σ mRNA (mean ± SEM) (14-3-3σ mRNA; HTM 424 cells, TCP (>1 GPa)): 0.73 ± 0.20^b ^
Relative quantification of 14-3-3σ mRNA (mean ± SEM) (14-3-3σ mRNA; HTM 431 cells, 5 kPa hydrogel): 1.09 ± 0.02^a ^
Relative quantification of 14-3-3σ mRNA (mean ± SEM) (14-3-3σ mRNA; HTM 431 cells, 75 kPa hydrogel): 1.57 ± 0.11^b, †
Relative quantification of 14-3-3σ mRNA (mean ± SEM) (14-3-3σ mRNA; HTM 431 cells, TCP (>1 GPa)): 0.53 ± 0.02^c, †
14-3-3σ mRNA expression versus DMSO (14-3-3σ mRNA; cells grown on TCP): did not have significantly different
14-3-3σ mRNA expression versus DMSO (14-3-3σ mRNA; cells grown on hydrogels): significantly more
level of 14-3-3σ mRNA (14-3-3σ mRNA; softer (homeomimetic) hydrogels): no effect
level of 14-3-3σ mRNA (14-3-3σ mRNA; stiffer (pathomimetic) hydrogels, listed as Lat B): increased
level of 14-3-3σ mRNA (14-3-3σ mRNA; stiffer (pathomimetic) hydrogels, listed as Latrunculin B): doubled
14-3-3σ expression versus DMSO (14-3-3σ mRNA; stiffer hydrogels, all three donors (HTM 211, 424, 431)): markedly increased
decrease of TAZ mRNA levels (TAZ mRNA; [3]): 1.9 fold
TAZ mRNA versus DMSO (TAZ mRNA; stiff (75 kPa) hydrogels, 3 donors, P=0.11): trend towards less; also recorded: markedly less

C=CCNC1=C2C[C@@H](C)C[C@H](OC)[C@H](O)[C@@H](C)/C=C(\C)[C@H](OC(N)=O)[C@@H](OC)/C=C\C=C(/C)C(=O)NC(=CC1=O)C2=O [17-allylamino-17-demethoxygelanamycin]
expression of YAP (YAP [2]): increased expression
reduction of the amount of HSP90 (HSP90): 50%

Source: patent US9206423B2, “Methods of modulating compliance of the trabecular meshwork” (The Regents of the University of California, priority 2012, dated 2015)
